From patent publication US20210205277A1, “MODULATORS OF THE INTEGRATED STRESS PATHWAY” (Calico Life Sciences LLC, priority 2017, published 2021)

Test system: HEK293T cells carrying the ATF4 luciferase reporter
Experiment: ATF4-Luc assay (in vitro model of VWMD)
Assay type: cell-based
Settings: Homo sapiens, HEK-293T; HEK293T cells with ATF4 5'-UTR firefly luciferase reporter; 1 μg/mL tunicamycin; 7 hours; One Glo luminescence
Procedure: In order to test exemplary compounds of the invention in a cellular context, a stable VWMD cell line was first constructed. The ATF4 reporter was prepared by fusing the human full-length ATF4 5′-UTR (NCBI Accession No. BC022088.2) in front of the firefly luciferase (FLuc) coding sequence lacking the initiator methionine as described in Sidrauski et al (eLife 2013). The construct was used to produce recombinant retroviruses using standard methods and the resulting viral supernatant was used to transduce HEK293T cells, which were then subsequently selected with puromycin to generate a stable cell line.
HEK293T cells carrying the ATF4 luciferase reporter were plated on polylysine coated 384-well plates (Greiner Bio-one) at 30,000 cells per well. Cells were treated the next day with 1 μg/mL tunicamycin and 200 nM of a compound of Formula (I) for 7 hours. Luminescence was measured using One Glo (Promega) as specified by the manufacturer. Cells were maintained in DMEM with L-glutamine supplemented with 10% heat-inactivated FBS (Gibco) and Antibiotic-Antimycotic solution (Gibco).
Table 2 below summarizes the EC50 data obtained using the ATF4-Luc assay for exemplary compounds of the invention.

SMILES | EC50
O=C(COc1ccc(Cl)c(F)c1)NC12CCC(c3nnc(-c4ccc(Cl)c(F)c4)o3)(CC1)[C@H](O)C2 (single isomer, unassigned) [Compound 101] | < 10 nM
O=C(COc1ccc(Cl)c(F)c1)NC12CCC(c3nnc(-c4ccc(Cl)c(F)c4)o3)(CC1)C[C@H]2O (single isomer, unassigned) [Compound 122] | < 10 nM
O=C(COc1ccc(Cl)c(F)c1)NC12CCC(c3nnc(-c4ccc(Cl)c(F)c4)o3)(CC1)C[C@@H]2O (single isomer, unassigned) [Compound 123] | < 10 nM
O=C(COc1ccc(Cl)c(F)c1)NC12CCC(c3nnc(-c4ccc(Cl)c(F)c4)o3)(CC1)[C@@H](O)C2 [Compound 100, 2-(4-chloro-3-fluorophenoxy)-N-{(3S)-4-[5-(4-chloro-3-fluorophenyl)-1,3,4-oxadiazol-2-yl]-3-hydroxybicyclo[2.2.2]octan-1-yl}acetamide] | < 10 nM
O=C(COc1ccc(Cl)c(F)c1)NC12CCC(n3ccc(-c4ccc(Cl)c(F)c4)c3)(CC1)CC2O (stereo not shown) [Compound 102, 2-(4-chloro-3-fluorophenoxy)-N-{4-[3-(4-chloro-3-fluorophenyl)-1H-pyrrol-1-yl]-2-hydroxybicyclo[2.2.2]octan-1-yl}acetamide] | < 10 nM
O=C(COc1ccc(Cl)c(F)c1)NC12CCC(c3nc(-c4ccc(Cl)c(F)c4)no3)(CC1)[C@H](O)C2 [Compound 103, 2-(4-chloro-3-fluorophenoxy)-N-{(3R)-4-[3-(4-chloro-3-fluorophenyl)-1,2,4-oxadiazol-5-yl]-3-hydroxybicyclo[2.2.2]octan-1-yl}acetamide] | 10 to 50 nM
O=C(COc1ccc(Cl)c(F)c1)NC12CCC(c3nc(-c4ccc(Cl)c(F)c4)no3)(CC1)[C@@H](O)C2 [Compound 104, 2-(4-chloro-3-fluorophenoxy)-N-{(3S)-4-[3-(4-chloro-3-fluorophenyl)-1,2,4-oxadiazol-5-yl]-3-hydroxybicyclo[2.2.2]octan-1-yl}acetamide] | < 10 nM
O=C(COc1ccc(Cl)c(F)c1)NC12CCC(c3nc(-c4ccc(Cl)c(F)c4)no3)(CC1)C(=O)C2 [Compound 105, 2-(4-chloro-3-fluorophenoxy)-N-{4-[3-(4-chloro-3-fluorophenyl)-1,2,4-oxadiazol-5-yl]-3-oxobicyclo[2.2.2]octan-1-yl}acetamide] | < 10 nM
O=C(COc1ccc(Cl)c(F)c1)NC12CCC(c3nnc(-c4ccc(Cl)c(F)c4)o3)(CC1)C(=O)C2 [Compound 106, 2-(4-chloro-3-fluorophenoxy)-N-{4-[5-(4-chloro-3-fluorophenyl)-1,3,4-oxadiazol-2-yl]-3-oxobicyclo[2.2.2]octan-1-yl}acetamide] | < 10 nM
O=C(COc1ccc(Cl)c(F)c1)NC12CCC(c3nnc(-c4ccc(Cl)c(F)c4)o3)(CC1)C(O)C2 (stereo not shown) [Compound 107, 2-(4-chloro-3-fluorophenoxy)-N-{4-[5-(4-chloro-3-fluorophenyl)-1,3,4-oxadiazol-2-yl]-3-hydroxybicyclo[2.2.2]octan-1-yl}acetamide] | < 10 nM
O=C(COc1ccc(Cl)c(F)c1)NC12CCC(c3nnc(-c4ccc(Cl)c(F)c4)o3)(CC1)CC2O (stereo not shown) [Compound 108, 2-(4-chloro-3-fluorophenoxy)-N-{4-[5-(4-chloro-3-fluorophenyl)-1,3,4-oxadiazol-2-yl]-2-hydroxybicyclo[2.2.2]octan-1-yl}acetamide] | < 10 nM
O=C(COc1ccc(Cl)c(F)c1)NC12CCC(n3ccc(-c4ccc(Cl)cc4)c3)(CC1)CC2O (stereo not shown) [Compound 109, 2-(4-chloro-3-fluorophenoxy)-N-{4-[3-(4-chlorophenyl)-1H-pyrrol-1-yl]-2-hydroxybicyclo[2.2.2]octan-1-yl}acetamide] | 10 to 50 nM
O=C(COc1ccc(Cl)c(F)c1)NC12CCC(c3ncc(-c4ccc(Cl)cc4)[nH]3)(CC1)[C@@H](O)C2 [Compound 110, 2-(4-chloro-3-fluorophenoxy)-N-{(3S)-4-[5-(4-chlorophenyl)-1H-imidazol-2-yl]-3-hydroxybicyclo[2.2.2]octan-1-yl}acetamide] | < 10 nM
O=C(COc1ccc(Cl)c(F)c1)NC12CCC(c3nc(-c4ccc(Cl)c(F)c4)no3)(CC1)CC2=O [Compound 111, 2-(4-chloro-3-fluorophenoxy)-N-{4-[3-(4-chloro-3-fluorophenyl)-1,2,4-oxadiazol-5-yl]-2-oxobicyclo[2.2.2]octan-1-yl}acetamide] | > 2000 nM
O=C(COc1ccc(Cl)c(F)c1)NC12CCC(n3nccc3-c3ccc(Cl)c(F)c3)(CC1)C[C@@H]2O [Compound 112, 2-(4-chloro-3-fluorophenoxy)-N-{(2S)-4-[5-(4-chloro-3-fluorophenyl)-1H-pyrazol-1-yl]-2-hydroxybicyclo[2.2.2]octan-1-yl}acetamide] | 500 to 2000 nM
O=C(COc1ccc(Cl)c(F)c1)NC12CCC(n3ccc(-c4ccc(Cl)c(F)c4)c3)(CC1)C[C@@H]2O [Compound 113, 2-(4-chloro-3-fluorophenoxy)-N-{(2S)-4-[3-(4-chloro-3-fluorophenyl)-1H-pyrrol-1-yl]-2-hydroxybicyclo[2.2.2]octan-1-yl}acetamide] | < 10 nM
O=C(COc1ccc(Cl)c(F)c1)NC12CCC(c3ncc(-c4ccc(Cl)cc4)o3)(CC1)[C@H](O)C2 [Compound 114, 2-(4-chloro-3-fluorophenoxy)-N-{(3R)-4-[5-(4-chlorophenyl)-1,3-oxazol-2-yl]-3-hydroxybicyclo[2.2.2]octan-1-yl}acetamide] | < 10 nM
O=C(COc1ccc(Cl)c(Cl)c1)NC12CCC(n3ccc(-c4ccc(Cl)c(F)c4)c3)(CC1)C[C@@H]2O [Compound 115, N-{(2S)-4-[3-(4-chloro-3-fluorophenyl)-1H-pyrrol-1-yl]-2-hydroxybicyclo[2.2.2]octan-1-yl}-2-(3,4-dichlorophenoxy)acetamide] | < 10 nM
O=C(COc1ccc(Cl)c(F)c1)NC12CC(c3ncc(-c4ccc(Cl)c(F)c4)[nH]3)(C1)C2 [Compound 116, 2-(4-chloro-3-fluorophenoxy)-N-{3-[5-(4-chloro-3-fluorophenyl)-1H-imidazol-2-yl]bicyclo[1.1.1]pentan-1-yl}acetamide] | < 10 nM
Cn1c(-c2ccc(Cl)c(F)c2)cnc1C12CC(NC(=O)COc3ccc(Cl)c(F)c3)(C1)C2 [Compound 117, 2-(4-chloro-3-fluorophenoxy)-N-{3-[5-(4-chloro-3-fluorophenyl)-1-methyl-1H-imidazol-2-yl]bicyclo[1.1.1]pentan-1-yl}acetamide] | 10 to 50 nM
O=C(COc1ccc(Cl)c(F)c1)NC12CCC(c3ncc(-c4ccc(Cl)cc4)[nH]3)(CC1)[C@H](O)C2 [Compound 118, 2-(4-chloro-3-fluorophenoxy)-N-{(3R)-4-[5-(4-chlorophenyl)-1H-imidazol-2-yl]-3-hydroxybicyclo[2.2.2]octan-1-yl}acetamide] | < 10 nM
O=C(COc1ccc(Cl)c(F)c1)NC12CCC(c3ncc(-c4ccc(Cl)c(F)c4)[nH]3)(CC1)[C@@H](O)C2 [Compound 119, 2-(4-chloro-3-fluorophenoxy)-N-{(3S)-4-[5-(4-chloro-3-fluorophenyl)-1H-imidazol-2-yl]-3-hydroxybicyclo[2.2.2]octan-1-yl}acetamide] | < 10 nM
O=C(NC12CCC(c3nc(-c4cccc(F)c4)no3)(CC1)C(O)C2)c1cc(C(F)F)no1 (stereo not shown) [Compound 120, 3-(difluoromethyl)-N-{4-[3-(3-fluorophenyl)-1,2,4-oxadiazol-5-yl]-3-hydroxybicyclo[2.2.2]octan-1-yl}-1,2-oxazole-5-carboxamide] | > 2000 nM
O=C(NC12CCC(c3nc(-c4ccc(Cl)c(F)c4)no3)(CC1)C(O)C2)c1cc(C(F)F)no1 (stereo not shown) [Compound 121, N-{4-[3-(4-chloro-3-fluorophenyl)-1,2,4-oxadiazol-5-yl]-3-hydroxybicyclo[2.2.2]octan-1-yl}-3-(difluoromethyl)-1,2-oxazole-5-carboxamide] | 500 to 2000 nM
COc1ncc(-c2nnc(C34CCC(NC(=O)COc5ccc(Cl)c(F)c5)(CC3)C(O)C4)o2)cn1 (stereo not shown) [Compound 124, 2-(4-chloro-3-fluorophenoxy)-N-{2-hydroxy-4-[5-(2-methoxypyrimidin-5-yl)-1,3,4-oxadiazol-2-yl]bicyclo[2.2.2]octan-1-yl}acetamide] | > 2000 nM
